From US11673323B2, “Fluorescent binders for use in monitoring additive manufacturing processes” (General Electric Company, priority 2020, dated 2023)
Entries after “also recorded” stand apart in the source; their conditions may differ.

Assay: Solubility of neat fluorescent dye in water-based PVA/PAA binder solution
Details: 0.5 wt % fluorescent dye in binder solution (PVA, PAA, ethylene glycol, ethylene glycol butyl ether, water), stirred at 50-70° C.
Procedure: To determine whether neat dyes (e.g., unencapsulated) could be incorporated into binder solutions, various fluorescent materials were added to a binder solution including 1-7 wt % PVA, 0.5-3 wt % PAA, 2-6 wt % ethylene glycol, 4-10 wt % ethylene glycol butyl ether, and the balance water to form Samples F-H, and Comparative Samples 1-5. In particular, from 0.2-0.5 wt % of the fluorescent material (DayGlo, UMCCorp, Aldrich) was added to the binder solution and stirred on a hot plate at 50-70° C. to dissolve the dye into the binder solution.

Solubility at 0.5 wt % | SMILES | Solubility at 0.5 wt % (listed as Sample H)
Partially soluble − | CCCN(CCO)c1nc(Nc2ccccc2)nc(Nc2ccc(/C=C/c3ccc(Nc4nc(Nc5ccccc5)nc(N(CCO)CCO)n4)cc3S(=O)(=O)[O-])c(S(=O)(=O)[O-])c2)n1.[Na+].[Na+] [FB 28] | 
Partially soluble − | O=S(=O)([O-])c1cc(Nc2nc(CCO)nc(Nc3ccccc3)n2)ccc1/C=C/c1ccc(Nc2nc(NCO)nc(Nc3ccccc3)n2)cc1S(=O)(=O)[O-].[Na+].[Na+] [FB 85] | 
Partially soluble − | CCCN(CCC)c1nc(Nc2ccccc2)nc(Nc2ccc(/C=C/c3ccc(Cc4nc(Cc5ccccc5)nc(N(OCC)OCC)n4)cc3S(=O)(=O)[O-])c(S(=O)(=O)[O-])c2)n1.[Na+].[Na+] [FB 113] | 

SMILES | Solubility at 0.5 wt % | Solubility at 0.5 wt % (listed as Sample H)
O=S(=O)([O-])c1ccccc1C=Cc1ccc(-c2ccc(C=Cc3ccccc3S(=O)(=O)[O-])cc2)cc1.[Na+].[Na+] [FB 351] | Soluble | fully soluble; also recorded: good solubility
